Assay results published in PMC10572855, “Phenotypic Test of Benzo[4,5]imidazo[1,2-c]pyrimidinone-Based Nucleoside and Non-Nucleoside Derivatives against DNA and RNA Viruses, Including Coronaviruses” (International Journal of Molecular Sciences, 2023).

system: SARS-CoV-2 RG-2675 (South Africa); assay: Cytopathic effect reduction, SARS-CoV-2 RG-2675 (South Africa) in Vero cells; assay type: cell-based; conditions: Severe acute respiratory syndrome coronavirus 2, Vero, read-out: Antiviral Activity (EC50) RG-2675 (South Africa)

Point of comparison: CC(C)C(=O)OC[C@H]1O[C@@H](n2ccc(NO)nc2=O)[C@H](O)[C@@H]1O [Molnupiravir], EC50 5.18 ± 0.26 µM. Against it:
- COc1ccc(C(OC[C@H]2O[C@@H](n3ccc4nc5cc(O)ccc5n4c3=O)C[C@@H]2O)(c2ccccc2)c2ccc(OC)cc2)cc1 [Compound 3a, 2-((2R,4S,5R)-5-((bis(4-methoxyphenyl)(phenyl)methoxy)methyl)-4-hydroxytetrahydrofuran-2-yl)-7-hydroxybenzo[4,5]imidazo[1,2-c]pyrimidin-1(2H)-one] — 1.8-fold higher, 9.1 ± 0.62 µM
- CCC(CC)COC(=O)[C@H](C)N[P@](=O)(OC[C@H]1O[C@@](C#N)(c2ccc3c(N)ncnn23)[C@H](O)[C@@H]1O)Oc1ccccc1 [Remdesivir, reference compound] — 4-fold lower, 1.31 ± 0.68 µM
